Results from PubChem BioAssay AID1963867 (Molecular Pharmacology Branch, DTP, NCI, 2024).
Where “and” joins values, the source holds several entries; their conditions need not be identical. Identical values can stand only once.

Tested on: KRAS-mutant PDC tumor spheroid with HUVEC/MSC, viability
Assay: Anticancer human tumor 327498-153-R-J2-PDC patient-derived uterine carcinosarcoma cell line growth inhibition [KRAS2]
Conditions: for viability, T/C: stronger effect = lower value
How it was run: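 KRAS-mutant tumor cells were grown as spheroids with HUVEC endothelial cells and human MSCs as stroma. Targeted agents were tested alone and with KRAS pathway inhibitors. Doses started at or near clinical Cmax, or 10 microM, descending half-log.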

[1] = curve of first compound, second compound 0.1 µM
[2] = curve of first compound, second compound 0.316 µM
[3] = curve of first compound, second compound 1 µM
[4] = curve of first compound, second compound 3.16 µM
[5] = curve of first compound, second compound 10 µM
[6] = second compound 0.1 µM, first compound 0.0316 µM
[7] = second compound 0.1 µM, first compound 0.1 µM
[8] = second compound 0.1 µM, first compound 0.316 µM
[9] = second compound 0.1 µM, first compound 1 µM
[10] = second compound 0.1 µM, first compound 3.16 µM
[11] = second compound 0.1 µM, first compound 10 µM
[12] = second compound 0.316 µM, first compound 0.0316 µM
[13] = second compound 0.316 µM, first compound 0.1 µM
[14] = second compound 0.316 µM, first compound 0.316 µM
[15] = second compound 0.316 µM, first compound 1 µM
[16] = second compound 0.316 µM, first compound 3.16 µM
[17] = second compound 0.316 µM, first compound 10 µM
[18] = second compound 1 µM, first compound 0.0316 µM
[19] = second compound 1 µM, first compound 0.1 µM
[20] = second compound 1 µM, first compound 0.316 µM
[21] = second compound 1 µM, first compound 1 µM
[22] = second compound 1 µM, first compound 3.16 µM
[23] = second compound 1 µM, first compound 10 µM
[24] = second compound 3.16 µM, first compound 0.0316 µM
[25] = second compound 3.16 µM, first compound 0.1 µM
[26] = second compound 3.16 µM, first compound 0.316 µM
[27] = second compound 3.16 µM, first compound 1 µM
[28] = second compound 3.16 µM, first compound 3.16 µM
[29] = second compound 3.16 µM, first compound 10 µM
[30] = second compound 10 µM, first compound 0.0316 µM
[31] = second compound 10 µM, first compound 0.1 µM
[32] = second compound 10 µM, first compound 0.316 µM
[33] = second compound 10 µM, first compound 1 µM
[34] = second compound 10 µM, first compound 3.16 µM
[35] = second compound 10 µM, first compound 10 µM
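Also: spheroids exposed to agents for seven days before reading.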
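For viability, T/C in this document: 100% = DMSO vehicle wells so lower means fewer viable cells.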

SMILES: COC(=O)c1ccc2c(C(=Nc3ccc(N(C)C(=O)CN4CCN(C)CC4)cc3)c3ccccc3)c(O)[nH]c2c1 + COc1cc2nc(C)nc(NC(C)c3cc(N)cc(C(F)(F)F)c3)c2cc1OC1CCOC1
- IC50 [1]: 2160 nM
- IC50 [2]: 490 nM
- IC50 [3]: 648 nM
- IC50 [4]: 585 nM
- IC50 [5]: 280 nM
- viability, T/C [6]: 94.6%
- viability, T/C [7]: 77.2%
- viability, T/C [8]: 72.2%
- viability, T/C [9]: 83.7%
- viability, T/C [10]: 33.9%
- viability, T/C [11]: 34.5%
- viability, T/C [12]: 73%
- viability, T/C [13]: 65.1%
- viability, T/C [14]: 57%
- viability, T/C [15]: 40.4%
- viability, T/C [16]: 29%
- viability, T/C [17]: 24.8%
- viability, T/C [18]: 62%
- viability, T/C [19]: 59%
- viability, T/C [20]: 64.3%
- viability, T/C [21]: 42.9%
- viability, T/C [22]: 25.5%
- viability, T/C [23]: 20.4%
- viability, T/C [24]: 69.5%
- viability, T/C [25]: 69.6%
- viability, T/C [26]: 60.9%
- viability, T/C [27]: 39.3%
- viability, T/C [28]: 19.9%
- viability, T/C [29]: 0.17%
- viability, T/C [30]: 54.2%
- viability, T/C [31]: 58.9%
- viability, T/C [32]: 47.1%
- viability, T/C [33]: 27.2%
- viability, T/C [34]: 2.2%
- viability, T/C [35]: 0.22%

SMILES: CC1COCCN1c1cc(-c2ccnn2C)c2ccnc(-c3ccn[nH]3)c2n1 (configuration not stated)
- viability, T/C (compound 0.1 µM): 16.4% [middle of 5 runs]
- viability, T/C (compound 0.316 µM): 6.37% [middle of 5 runs]
- viability, T/C (compound 1 µM): 5.03% [middle of 5 runs]
- viability, T/C (compound 3.16 µM): 4.84% [middle of 5 runs]

SMILES: C=CC(=O)N1CCN(c2nc(=O)n(-c3c(C)ccnc3C(C)C)c3nc(-c4c(O)cccc4F)c(F)cc23)C(C)C1 (configuration not stated)
- IC50 (compound alone, run of 07/12/2021): > 10000 nM and 1310 nM and 1220 nM

SMILES: COc1cc2nccc(Oc3ccc(NC(=O)C4(C(=O)Nc5ccc(F)cc5)CC4)cc3)c2cc1OC + CC1OCC2(CCN(c3cnc(Sc4ccnc(N)c4Cl)c(N)n3)CC2)C1N
- IC50 [1]: 1310 nM
- IC50 [2]: 659 nM
- IC50 [3]: < 31.6 nM
- IC50 [4]: < 31.6 nM
- IC50 [5]: < 31.6 nM
- viability, T/C [6]: 70.9%
- viability, T/C [7]: 76.3%
- viability, T/C [8]: 61.8%
- viability, T/C [9]: 60.5%
- viability, T/C [10]: 21.6%
- viability, T/C [11]: 2.02%
- viability, T/C [12]: 53.3%
- viability, T/C [13]: 53.5%
- viability, T/C [14]: 46.9%
- viability, T/C [15]: 49.5%
- viability, T/C [16]: 20.5%
- viability, T/C [17]: 1.95%
- viability, T/C [18]: 38.5%
- viability, T/C [19]: 35.9%
- viability, T/C [20]: 32.2%
- viability, T/C [21]: 31.9%
- viability, T/C [22]: 10.8%
- viability, T/C [23]: 1.02%
- viability, T/C [24]: 29.9%
- viability, T/C [25]: 31.5%
- viability, T/C [26]: 23.1%
- viability, T/C [27]: 21.3%
- viability, T/C [28]: 14.4%
- viability, T/C [29]: 0.53%
- viability, T/C [30]: 24.6%
- viability, T/C [31]: 21.9%
- viability, T/C [32]: 23.6%
- viability, T/C [33]: 22.1%
- viability, T/C [34]: 9.8%
- viability, T/C [35]: 0.48%

SMILES: O=C(c1cc(Cc2n[nH]c(=O)c3ccccc23)ccc1F)N1CCN(C(=O)C2CC2)CC1
- viability, T/C (compound 0.0316 µM): 108% [middle of 5 runs]
- viability, T/C (compound 0.1 µM): 99.3% [middle of 5 runs]
- viability, T/C (compound 0.316 µM): 93% [middle of 5 runs]
- viability, T/C (compound 1 µM): 81.6% [middle of 5 runs]
- viability, T/C (compound 3.16 µM): 41.5% [middle of 5 runs]
- viability, T/C (compound 10 µM): 18.4% [middle of 5 runs]
- IC50 (curve of compound): 2.58 µM [middle of 5 runs]
